In paper PMC10176470, “Engaging a Non-catalytic Cysteine Residue Drives Potent and Selective Inhibition of Caspase-6” (Journal of the American Chemical Society, 2023):
Where two headings read alike, the source gives them in different places.

Assays:
Format in all cases: cell-based
[1] = target: proteins of HEK293T cells transiently overexpressing caspase-6 (Homo sapiens, UniProt Q12905); conditions: exp_ref Probe; protein ILF2 (Q12905); analysis C6
[2] = target: proteins of HEK293T cells transiently overexpressing caspase-6 (Homo sapiens, UniProt Q99497); conditions: exp_ref Probe; protein PARK7 (Q99497); analysis C6
[3] = target: proteins of HEK293T cells transiently overexpressing caspase-6 (Homo sapiens, UniProt P12277); conditions: protein CKB (P12277)
[4] = target: proteins of HEK293T cells transiently overexpressing caspase-6 (Homo sapiens, UniProt P06744); conditions: protein GPI (P06744), analysis C6
[5] = target: proteins of HEK293T cells transiently overexpressing caspase-6 (Homo sapiens, UniProt P08670)
[6] = target: proteins of HEK293T cells transiently overexpressing caspase-6 (Homo sapiens, UniProt P60900); conditions: exp_ref Probe; protein PSMA6 (P60900); analysis C6
[7] = target: proteins of HEK293T cells transiently overexpressing caspase-6 (Homo sapiens, UniProt P26640); conditions: Probe; protein VARS P26640
[8] = target: proteins of HEK293T cells transiently overexpressing caspase-6 (Homo sapiens, UniProt Q9UBE0); conditions: protein SAE1 (Q9UBE0); exp_ref Probe; analysis C6
[9] = target: proteins of HEK293T cells transiently overexpressing caspase-6 (Homo sapiens, UniProt O14980); conditions: protein XPO1 (O14980); exp_ref Probe; analysis C6
[10] = target: proteins of HEK293T cells transiently overexpressing caspase-6 (Homo sapiens, UniProt Q9NR30); conditions: exp_ref Probe; protein DDX21 (Q9NR30); analysis C6
[11] = target: T1, proteins of HEK293T cells transiently overexpressing caspase-6 (Homo sapiens, UniProt P22234); conditions: protein PAICS (P22234)
T1 sequence (P22234 1-425): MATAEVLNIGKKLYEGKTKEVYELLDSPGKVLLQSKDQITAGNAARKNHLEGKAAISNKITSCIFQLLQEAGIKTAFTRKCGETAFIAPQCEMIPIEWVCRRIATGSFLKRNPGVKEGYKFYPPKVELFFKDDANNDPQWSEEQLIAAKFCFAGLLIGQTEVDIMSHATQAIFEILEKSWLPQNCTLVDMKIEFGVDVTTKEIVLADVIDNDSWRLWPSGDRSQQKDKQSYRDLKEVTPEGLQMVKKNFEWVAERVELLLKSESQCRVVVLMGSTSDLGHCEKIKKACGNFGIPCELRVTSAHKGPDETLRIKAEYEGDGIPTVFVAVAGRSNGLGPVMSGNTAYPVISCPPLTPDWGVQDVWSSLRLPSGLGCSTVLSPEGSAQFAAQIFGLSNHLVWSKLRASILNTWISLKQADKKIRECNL

[12] = target: proteins of HEK293T cells transiently overexpressing caspase-6 (Homo sapiens, UniProt P05141); conditions: exp_ref Probe; protein SLC25A5 (P05141); analysis C6
[13] = target: proteins of HEK293T cells transiently overexpressing caspase-6 (Homo sapiens, UniProt Q07020); conditions: Probe; protein RPL18 Q07020
[14] = target: T2, proteins of HEK293T cells transiently overexpressing caspase-6 (Homo sapiens, UniProt Q13642)
T2 sequence (Q13642 1-323): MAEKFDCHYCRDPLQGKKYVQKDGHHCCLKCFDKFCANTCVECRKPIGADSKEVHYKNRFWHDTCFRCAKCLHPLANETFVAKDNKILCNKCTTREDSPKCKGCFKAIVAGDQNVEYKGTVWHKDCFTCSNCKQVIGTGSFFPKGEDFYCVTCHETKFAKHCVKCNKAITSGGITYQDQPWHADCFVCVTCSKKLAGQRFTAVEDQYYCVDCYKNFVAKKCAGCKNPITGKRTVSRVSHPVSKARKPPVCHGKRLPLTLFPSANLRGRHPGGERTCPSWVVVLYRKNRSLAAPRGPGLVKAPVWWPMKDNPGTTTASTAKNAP

[15] = target: proteins of HEK293T cells transiently overexpressing caspase-6 (Homo sapiens, UniProt P09211); conditions: exp_ref Probe; protein GSTP1 (P09211); analysis C6
[16] = target: T3, proteins of HEK293T cells transiently overexpressing caspase-6 (Homo sapiens, UniProt P30519); conditions: protein HMOX2 (P30519)
T3 sequence (P30519 1-316): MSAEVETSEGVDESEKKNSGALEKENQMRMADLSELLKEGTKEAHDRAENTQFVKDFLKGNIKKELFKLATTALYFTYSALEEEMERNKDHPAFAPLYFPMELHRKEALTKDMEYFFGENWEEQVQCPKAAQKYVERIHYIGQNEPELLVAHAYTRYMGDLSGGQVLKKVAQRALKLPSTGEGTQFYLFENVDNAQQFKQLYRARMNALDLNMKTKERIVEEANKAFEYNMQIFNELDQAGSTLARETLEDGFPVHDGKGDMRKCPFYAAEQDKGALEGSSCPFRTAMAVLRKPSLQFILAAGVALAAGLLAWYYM

[17] = target: proteins of HEK293T cells transiently overexpressing caspase-6 (Homo sapiens, UniProt Q9UL46); conditions: protein PSME2 (Q9UL46); exp_ref Probe; analysis C6
proteins of HEK293T cells transiently overexpressing caspase-6 (Homo sapiens, UniProt Q9UL46), sequence (Q9UL46 whole entry): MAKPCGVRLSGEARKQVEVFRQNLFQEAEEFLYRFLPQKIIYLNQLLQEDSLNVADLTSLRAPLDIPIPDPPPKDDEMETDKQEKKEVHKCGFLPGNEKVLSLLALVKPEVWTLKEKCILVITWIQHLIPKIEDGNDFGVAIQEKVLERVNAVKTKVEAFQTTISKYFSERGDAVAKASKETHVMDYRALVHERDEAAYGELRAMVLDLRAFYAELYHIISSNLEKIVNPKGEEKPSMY

proteins of HEK293T cells transiently overexpressing caspase-6 (Homo sapiens, UniProt P12277), sequence (P12277 whole entry): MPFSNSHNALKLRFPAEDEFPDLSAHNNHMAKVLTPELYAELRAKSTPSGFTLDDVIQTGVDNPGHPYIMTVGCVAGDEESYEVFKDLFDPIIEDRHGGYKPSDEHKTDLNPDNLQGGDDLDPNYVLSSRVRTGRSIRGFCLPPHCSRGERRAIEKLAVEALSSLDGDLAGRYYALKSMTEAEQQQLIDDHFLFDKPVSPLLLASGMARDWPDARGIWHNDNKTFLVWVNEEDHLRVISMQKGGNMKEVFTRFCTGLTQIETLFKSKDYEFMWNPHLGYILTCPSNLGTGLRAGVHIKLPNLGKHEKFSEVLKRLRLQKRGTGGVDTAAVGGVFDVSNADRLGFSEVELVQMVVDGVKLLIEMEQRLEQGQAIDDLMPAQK
proteins of HEK293T cells transiently overexpressing caspase-6 (Homo sapiens, UniProt P08670), sequence (P08670 whole entry): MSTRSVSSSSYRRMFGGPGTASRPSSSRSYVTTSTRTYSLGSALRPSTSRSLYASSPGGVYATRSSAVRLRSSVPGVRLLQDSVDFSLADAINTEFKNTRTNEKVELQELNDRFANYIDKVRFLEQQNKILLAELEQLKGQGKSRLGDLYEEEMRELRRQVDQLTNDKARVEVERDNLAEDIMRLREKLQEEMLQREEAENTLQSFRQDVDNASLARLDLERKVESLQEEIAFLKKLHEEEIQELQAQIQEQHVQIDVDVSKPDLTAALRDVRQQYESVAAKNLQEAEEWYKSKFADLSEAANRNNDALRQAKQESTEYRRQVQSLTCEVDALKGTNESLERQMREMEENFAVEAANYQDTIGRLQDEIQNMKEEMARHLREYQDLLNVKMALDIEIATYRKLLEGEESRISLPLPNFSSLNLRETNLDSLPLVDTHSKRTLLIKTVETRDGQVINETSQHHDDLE
proteins of HEK293T cells transiently overexpressing caspase-6 (Homo sapiens, UniProt Q9UBE0), sequence (Q9UBE0 whole entry): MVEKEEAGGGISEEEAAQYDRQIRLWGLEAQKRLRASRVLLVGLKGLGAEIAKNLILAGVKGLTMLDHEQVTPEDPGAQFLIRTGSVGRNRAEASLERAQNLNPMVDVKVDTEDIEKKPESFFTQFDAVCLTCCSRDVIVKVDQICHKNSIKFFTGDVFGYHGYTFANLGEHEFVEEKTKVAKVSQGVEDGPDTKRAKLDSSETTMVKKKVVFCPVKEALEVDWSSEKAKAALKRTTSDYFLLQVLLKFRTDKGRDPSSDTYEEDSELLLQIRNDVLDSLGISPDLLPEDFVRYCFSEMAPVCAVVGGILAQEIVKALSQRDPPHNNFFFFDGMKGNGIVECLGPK
proteins of HEK293T cells transiently overexpressing caspase-6 (Homo sapiens, UniProt P26640), sequence (P26640 whole entry): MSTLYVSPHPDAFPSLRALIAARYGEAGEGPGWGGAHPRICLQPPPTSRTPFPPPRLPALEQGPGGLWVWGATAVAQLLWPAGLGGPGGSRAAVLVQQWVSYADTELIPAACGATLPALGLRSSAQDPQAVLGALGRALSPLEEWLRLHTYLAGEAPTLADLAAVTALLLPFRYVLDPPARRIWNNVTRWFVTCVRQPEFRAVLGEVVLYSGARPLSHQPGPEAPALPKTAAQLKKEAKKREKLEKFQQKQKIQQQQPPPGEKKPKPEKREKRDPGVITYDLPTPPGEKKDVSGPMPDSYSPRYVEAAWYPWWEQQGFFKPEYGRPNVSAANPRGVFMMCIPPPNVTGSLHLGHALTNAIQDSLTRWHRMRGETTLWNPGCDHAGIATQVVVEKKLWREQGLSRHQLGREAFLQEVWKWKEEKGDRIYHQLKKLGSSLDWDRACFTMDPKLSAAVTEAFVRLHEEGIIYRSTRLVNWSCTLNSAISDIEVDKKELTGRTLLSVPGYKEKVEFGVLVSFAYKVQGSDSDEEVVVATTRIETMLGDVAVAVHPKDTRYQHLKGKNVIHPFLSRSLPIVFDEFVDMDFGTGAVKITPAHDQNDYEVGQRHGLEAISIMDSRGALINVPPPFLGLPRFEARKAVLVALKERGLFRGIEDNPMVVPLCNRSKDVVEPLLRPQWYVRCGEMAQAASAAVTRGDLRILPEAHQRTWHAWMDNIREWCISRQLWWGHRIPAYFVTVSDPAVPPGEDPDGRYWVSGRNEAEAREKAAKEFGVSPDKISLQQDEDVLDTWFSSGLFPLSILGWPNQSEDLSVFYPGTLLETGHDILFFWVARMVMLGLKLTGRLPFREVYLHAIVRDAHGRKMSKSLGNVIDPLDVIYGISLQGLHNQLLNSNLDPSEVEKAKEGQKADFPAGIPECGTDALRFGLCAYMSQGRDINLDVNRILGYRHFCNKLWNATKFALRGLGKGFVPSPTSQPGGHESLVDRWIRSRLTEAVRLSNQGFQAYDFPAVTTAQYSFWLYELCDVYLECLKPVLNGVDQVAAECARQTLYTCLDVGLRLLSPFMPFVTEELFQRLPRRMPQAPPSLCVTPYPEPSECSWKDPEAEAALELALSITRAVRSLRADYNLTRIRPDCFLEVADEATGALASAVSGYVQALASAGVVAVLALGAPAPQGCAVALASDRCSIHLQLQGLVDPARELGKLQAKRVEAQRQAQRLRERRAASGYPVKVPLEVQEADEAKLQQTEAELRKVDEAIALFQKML
proteins of HEK293T cells transiently overexpressing caspase-6 (Homo sapiens, UniProt P60900), sequence (P60900 whole entry): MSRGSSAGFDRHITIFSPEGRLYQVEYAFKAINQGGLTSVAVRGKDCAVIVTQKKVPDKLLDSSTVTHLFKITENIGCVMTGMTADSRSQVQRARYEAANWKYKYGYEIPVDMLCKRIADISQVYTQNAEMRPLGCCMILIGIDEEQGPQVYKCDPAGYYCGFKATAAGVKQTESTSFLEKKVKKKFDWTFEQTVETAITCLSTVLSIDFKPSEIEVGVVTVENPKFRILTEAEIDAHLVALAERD
proteins of HEK293T cells transiently overexpressing caspase-6 (Homo sapiens, UniProt Q9NR30), sequence (Q9NR30 whole entry): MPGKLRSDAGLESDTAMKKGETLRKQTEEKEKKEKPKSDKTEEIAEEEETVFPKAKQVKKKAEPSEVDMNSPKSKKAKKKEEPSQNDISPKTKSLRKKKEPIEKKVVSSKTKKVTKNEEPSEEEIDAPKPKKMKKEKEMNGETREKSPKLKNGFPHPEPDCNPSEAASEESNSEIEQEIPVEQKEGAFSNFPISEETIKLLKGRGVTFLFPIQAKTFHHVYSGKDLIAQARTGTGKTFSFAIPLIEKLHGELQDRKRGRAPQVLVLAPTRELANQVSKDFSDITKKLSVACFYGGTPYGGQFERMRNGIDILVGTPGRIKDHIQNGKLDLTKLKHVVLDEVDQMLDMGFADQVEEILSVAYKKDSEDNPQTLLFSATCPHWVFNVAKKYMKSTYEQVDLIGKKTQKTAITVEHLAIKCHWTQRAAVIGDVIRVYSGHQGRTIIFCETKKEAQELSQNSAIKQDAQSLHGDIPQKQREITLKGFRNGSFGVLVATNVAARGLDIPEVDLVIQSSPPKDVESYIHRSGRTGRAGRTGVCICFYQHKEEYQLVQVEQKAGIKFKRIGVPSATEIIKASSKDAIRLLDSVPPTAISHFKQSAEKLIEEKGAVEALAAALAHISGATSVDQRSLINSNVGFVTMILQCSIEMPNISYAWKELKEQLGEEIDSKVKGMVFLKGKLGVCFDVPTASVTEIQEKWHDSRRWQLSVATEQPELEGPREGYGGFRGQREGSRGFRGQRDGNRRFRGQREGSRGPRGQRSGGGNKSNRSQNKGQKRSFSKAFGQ
proteins of HEK293T cells transiently overexpressing caspase-6 (Homo sapiens, UniProt P09211), sequence (P09211 whole entry): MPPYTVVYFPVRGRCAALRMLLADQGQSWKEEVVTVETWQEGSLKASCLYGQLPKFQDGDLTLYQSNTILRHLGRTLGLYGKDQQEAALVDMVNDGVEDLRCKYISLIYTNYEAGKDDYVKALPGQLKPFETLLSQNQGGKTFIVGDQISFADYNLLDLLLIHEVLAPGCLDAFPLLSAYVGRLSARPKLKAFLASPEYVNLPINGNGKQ
proteins of HEK293T cells transiently overexpressing caspase-6 (Homo sapiens, UniProt P05141), sequence (P05141 whole entry): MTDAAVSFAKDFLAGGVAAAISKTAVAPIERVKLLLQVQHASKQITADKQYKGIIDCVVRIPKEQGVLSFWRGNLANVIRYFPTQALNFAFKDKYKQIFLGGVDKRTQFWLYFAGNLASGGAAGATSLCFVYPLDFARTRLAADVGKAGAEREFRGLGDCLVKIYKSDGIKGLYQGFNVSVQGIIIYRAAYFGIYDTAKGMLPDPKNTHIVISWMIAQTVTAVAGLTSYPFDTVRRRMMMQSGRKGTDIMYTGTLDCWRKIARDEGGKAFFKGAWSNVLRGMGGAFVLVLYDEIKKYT
proteins of HEK293T cells transiently overexpressing caspase-6 (Homo sapiens, UniProt Q99497), sequence (Q99497 whole entry): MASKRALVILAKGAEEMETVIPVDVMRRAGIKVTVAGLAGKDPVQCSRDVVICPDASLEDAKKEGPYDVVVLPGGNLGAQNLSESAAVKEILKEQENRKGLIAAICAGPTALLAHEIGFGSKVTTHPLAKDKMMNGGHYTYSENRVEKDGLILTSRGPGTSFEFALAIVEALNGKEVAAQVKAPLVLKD
proteins of HEK293T cells transiently overexpressing caspase-6 (Homo sapiens, UniProt Q12905), sequence (Q12905 whole entry): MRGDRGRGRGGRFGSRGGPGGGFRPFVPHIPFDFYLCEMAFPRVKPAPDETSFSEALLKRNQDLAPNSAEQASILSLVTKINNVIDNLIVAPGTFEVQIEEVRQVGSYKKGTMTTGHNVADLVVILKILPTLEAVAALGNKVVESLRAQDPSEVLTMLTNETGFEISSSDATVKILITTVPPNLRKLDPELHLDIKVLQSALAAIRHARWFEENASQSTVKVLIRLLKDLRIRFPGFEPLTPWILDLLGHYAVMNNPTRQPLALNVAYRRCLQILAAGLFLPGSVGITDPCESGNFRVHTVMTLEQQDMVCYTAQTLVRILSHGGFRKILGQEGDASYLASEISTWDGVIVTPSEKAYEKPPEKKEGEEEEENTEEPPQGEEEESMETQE

C#CCOc1ccc([C@@H]2C[C@@H](C(=O)Nc3ccc(OC(F)(F)F)cc3)CN(S(=O)(=O)C=C)C2)cc1 (relative stereo) [13-t]
enrich.exp.med [1]: 0.9081
enrich.exp.med [2]: 0.478
enrich.exp.med ([3]; exp_ref Probe, analysis C6): 0.5567
enrich.exp.med.lin [3]: 1.4709
enrich.exp.med.log2 [3]: 0.5567
enrich.exp.med.lin ([4]; Expt Probe): 5.762
enrich.exp.med.log2 ([4]; Expt Probe): 2.527
enrich.exp.med ([4]; exp_ref Probe): 2.527
enrich.exp.med ([5]; Probe, protein VIM P08670): -1.006
enrich.exp.med.lin ([5]; protein VIM (P08670)): 0.4978
enrich.exp.med.log2 ([5]; protein VIM (P08670)): -1.006
enrich.exp.med [6]: -0.241
enrich.exp.med [7]: -1.705
enrich.exp.med [8]: 1.338
enrich.exp.med [9]: 1.753
enrich.exp.med [10]: 0.5934
enrich.exp.med ([11]; exp_ref Probe, analysis C6): 0.8585
enrich.exp.med.lin [11]: 1.813
enrich.exp.med.log2 [11]: 0.8585
enrich.exp.med [12]: 0.9373
enrich.exp.med [13]: -0.6313
enrich.exp.med ([14]; Probe, protein FHL1 Q13642): -0.95
enrich.exp.med.lin ([14]; protein FHL1 (Q13642)): 0.5176
enrich.exp.med.log2 ([14]; protein FHL1 (Q13642)): -0.95
enrich.exp.med [15]: 0.03311
enrich.exp.med.lin [16]: 4.772
enrich.exp.med.log2 [16]: 2.255
enrich.exp.med.lin ([16]; Expt Probe, analysis C6): 4.772
enrich.exp.med.log2 ([16]; Expt Probe, analysis C6): 2.255
enrich.exp.med ([16]; exp_ref Probe, analysis C6): 2.255
enrich.exp.med [17]: 1.487
